According to patent US11541152B2, “Medical device with drug-eluting coating on modified device surface” (Lutonix, Inc., priority 2018, dated 2023):
One block for each molecule: values may come before it.

Experiments:
[1] = octanol/water; cited from earlier work
[2] = stability under ethylene oxide sterilization, heating and aging; reaction with paclitaxel; conditions: for reaction with paclitaxel: ethylene oxide sterilization, heating, aging
[3] = BSA added; cited from earlier work
protein (albumin) = conditions: cited from earlier work
[4] = cited from earlier work

Molecule: COc1ccc(O)c(C(C)(C)C)c1 [Butylated hydroxyanisole]
log P [1]: 1.31

reaction with paclitaxel [2]: reacted with paclitaxel
Molecule: O=C1O[C@H]([C@@H](O)CO)C(O)=C1O [ascorbic acid]

Molecule: O=C(O)c1ccccc1 [benzoic acid]
reaction with paclitaxel [2]: reacted with paclitaxel
stability under ethylene oxide sterilization, heating, and aging process ([2]; formulated with paclitaxel): not stable

reaction with paclitaxel [2]: reacted with paclitaxel
Molecule: OCCNCCO [diethanolamine]

Molecule: CC(=O)O[C@H]1C(=O)[C@@]2(C)[C@H]([C@H](OC(=O)c3ccccc3)[C@]3(O)C[C@H](OC(=O)[C@H](O)[C@@H](NC(=O)c4ccccc4)c4ccccc4)C(C)=C1C3(C)C)[C@]1(OC(C)=O)CO[C@@H]1C[C@@H]2O [paclitaxel]
increase of solubility in PBS with the addition of BSA [3]: over 20 fold

Molecule: CO[C@H]1C[C@@H]2CC[C@@H](C)[C@@](O)(O2)C(=O)C(=O)N2CCCC[C@H]2C(=O)O[C@H]([C@H](C)C[C@@H]2CC[C@@H](O)[C@H](OC)C2)CC(=O)[C@H](C)/C=C(\C)[C@@H](O)[C@@H](OC)C(=O)[C@H](C)C[C@H](C)/C=C/C=C/C=C/1C [rapamycin]
protein bound (protein (albumin)): 92%
share of protein binding that is to albumin (protein (albumin); primarily to albumin): 97%

Molecule: PEG-20 sorbitan monolaurate [Tween 20]
log P [1]: about 3.0

Molecule: Sudan Red
solubility in aqueous solvent [4]: insoluble in aqueous solvent
